Source: patent US4975437A, “Isomers of 1-azabicyclo(2.2.2)oct-3-yl 1,4-dihydro-2,6-dimethyl-4-(3-nitrophenyl)-5-nitropyridine-3-carboxylate” (Marion Laboratories, Inc., priority 1989, dated 1990)
Counter-ions that a name gives are not always drawn. Like-named read-outs stand apart in the source and are kept apart here.

Assays:
[1] = tested on: extracellular calcium ions; conditions: in words, dose-dependent; cited from earlier work
[2] = tested on: voltage sensitive calcium channels; experiment: Potentiation of Calcium Influx across the Membrane (Quin 2 fluorescence); format: cell-based, murine; conditions: NG108-15 (NGI08-15 [sic]) cells, KCl 50 mM depolarization, 37° C, percent enhancement over potassium chloride stimulation
Experimental: This test system was developed to evaluate the relative ability of compounds to potentiate calcium influx into cells via voltage sensitive calcium channels. The technique employs a high calcium affinity fluorescent dye to monitor changes in intracellular free calcium concentrations. The cells are incubated with a protected non-fluorescent form of the calcium sensitive dye. This compound permeates the cell wall and enters the cell. There it is transformed by enzymes into the fluorescent dye Quin 2 which cannot leave the cell Quin 2 has a high affinity for calcium ions and when calcium is bound to the dye, the complex fluoresces, the intensity of the fluorescence being proportional to the concentration of calcium ions. Voltage sensitive calcium channels are activated by the addition of potassium chloride to the media and calcium ion influx occurs. The increase in fluorescence is measured, giving a relative measure of calcium influx, the control value. In a separate cuvette, both potassium chloride and the test compound are administered to the cells and the fluorescence measured. A calcium agonist should increase influx of calcium into the cells and therefore an increase in the fluorescence. The percent stimulation above control is obtained from the increase in fluorescence.
Differentiated murine neuronal (neuroblastoma x glioma) hybrid cells (NGI08-15) which contain an abundance of voltage dependant calcium channels were used as a source of tissue for testing these compounds.
Briefly, NGI08-15 cells were cultured in 10% CO2 at 37° C. in Dulbecco's modified Eagle's medium (DMEM) supplemented with glutamine (1.0 mM). fetal bovine serum (FBS; 10%). and hypoxanthine (100 μM), aminopterin (1.0 μM). and thymidine (20 μM). Differentiation was induced by treatment with dibutyl cyclic AMP (4 days, 1.0 mM) [L. Noronha-Blob, C. […] Dispersed cells (5×10^6 cells/mL) were incubated with quin 2 acetoxymethyl ester (quin 2-AM, the calcium specific dye) [100 μM. in dimethyl sulfoxide (DMSO)] for 60 minutes at 37° C. The control suspensions received only DMSO. Cells were then diluted in ice-cold media, centrifuged and washed twice (1,500×g, 3 minutes) in ice-cold HEPES buffer (composition: 130 mM NaCl, 5.0 mM KCl, 6.0 mM glucose, 1.0 mM MgCl2, 1.0 mM CaCl2, and 20 mM HEPES, pH 7 4).
The change in fluorescence was calculated from the difference between final and initial values. The results were expressed as a percent enhancement over potassium chloride stimulation (control).

[3] = tested on: smooth muscle (longitudinal muscle of ileum); experiment: Enhancement of Calcium Ion Evoked Smooth Muscle Contractility (isolated ileum longitudinal muscle); conditions: guinea pig ileum; for Concentration at Maximum Enhancement: concentration of compound that produced the maximum enhancement; for Maximum Enhancement (% maximum contraction): 6 min; for minimal effective concentration: lowest concentration that produced enhancement of calcium evoked contraction, 37° C, read-out: Threshold for Enhancement
Excerpt: This test is a measure of the ability of test compounds to enhance muscle contraction caused by calcium ions. A sample of muscle was placed under tension in a device to measure its length and contracted by addition of potassium chloride (to activate the calcium channels) followed by addition of a calcium ion solution. The addition of a calcium agonist should cause the influx of additional calcium ions and thereby cause further contraction of the muscle. The lowest concentration of test compound necessary to evoke this additional contraction was measured, as were the maximum contraction obtained and the concentration at which it was reached
The ileum of male albino guinea pigs were cut into 3-4 cm segments. The longitudinal muscle, with myenteric plexus attached, was separated from the circular muscle. […] Each preparation was suspended under resting tension of 0.3 g. The tissues were switched to calcium free Tryodes solution for 24 minutes. with complete replacement of the solution every four minutes. Potassium chloride was then added to produce a bath concentration of […], and calcium solutions were cumulatively added to increase the bath calcium ion concentration to 0.2-8.0 mM. The tissues were re-equilibrated in normal Tyrodes and then calcium free Tyrodes. Enhancement of calcium evoked contractions in the presence of drug were determined by repeating the cumulative addition procedure after the tissues were exposed to the drug for six minutes. Responses were expressed relative to the maximum contraction elicited by calcium ion in the absence of the drug.

[4] = tested on: isolated guinea pig atrium; conditions: cited from earlier work
[5] = tested on: isolated rabbit aortic strips; conditions: cited from earlier work
rabbit aortic rings = conditions: cited from earlier work
[6] = tested on: radioactive calcium uptake; conditions: cited from earlier work
[7] = in words; cited from earlier work
[8] = increase above control as percent of maximum control calcium evoked contraction, 6 min drug exposure

## CCOC(=O)C1=C(C)NC2=C(C(=O)OC2)C1c1ccccc1OC(F)F (centres unmarked) [CGP 28392, ethyl 4-[2-(difluoromethoxy)phenyl]-1,4,5,7-tetrahydro-2-methyl-5-oxofuro[3,4-b]pyridine-3-carboxylate]
[1]
  concentration of extracellular calcium ions: increase in a dose-dependent manner the concentration of extracellular calcium ions

## CC1=C(C(=O)OC2CN3CCC2CC3)C(c2cccc([N+](=O)[O-])c2)C([N+](=O)[O-])=C(C)N1 (single isomer, unassigned) [(+a, -b), (+a, -b)-1-Azabicyclo[2.2.2]oct-3-yl 1,4-Dihydro-2,6-dimethyl-4-(3-nitrophenyl)-5-nitropyridine-3-carboxylate fumarate]
[2]
  % Stimulation Above Control: 31%
[3]
  Concentration at Maximum Enhancement: 10 nM
[3]; [8]
  Maximum Enhancement (% maximum contraction): 15%
[3]; 6 min drug exposure
  minimal effective concentration: 10 nM

## CC1=C(C(=O)OC2CN3CCC2CC3)C(c2cccc([N+](=O)[O-])c2)C([N+](=O)[O-])=C(C)N1 (single isomer, unassigned) [(-a, +b), (-a, +b)-1-Azabicyclo[2.2.2]oct-yl 1.4-Dihydro-2,6-dimethyl-4-(3-nitrophenyl)-5-nitropyridine-3-carboxylate fumarate]
[2]
  % Stimulation Above Control: 25%
[3]
  Concentration at Maximum Enhancement: 1000 nM
[3]; [8]
  Maximum Enhancement (% maximum contraction): 13%
[3]; 6 min drug exposure
  minimal effective concentration: 100 nM

## CC1=C(C(=O)Nc2ccccc2)C(c2ccccc2Cl)C(C(=O)OCCc2ccccn2)=C(C)N1 (centres unmarked) [YC-170]
[4]; isolated guinea pig atrium
  inotropic effect in atrium: positive inotropic effect
[4]; partially depolarized with a low concentration of potassium
  contractile tension in atrium: decrease in contractile tension
[5]; isolated rabbit aortic strips
  contraction of aortic strips: induced contraction
[5]; precontracted by a high concentration of potassium
  relaxant effect on aorta: relaxant effect

## CC1=C(C(=O)OC2CN3CCC2CC3)C(c2cccc([N+](=O)[O-])c2)C([N+](=O)[O-])=C(C)N1 (single isomer, unassigned) [(-a, -b), (-a, -b)-1-Azabicyclo[2.2.2]oct-3-yl 1,4-Dihydro-2,6-dimethyl-4-(3-nitrophenyl)-5-nitropyridine-3-carboxylate fumarate]
[2]
  % Stimulation Above Control: 10%
[3]
  Concentration at Maximum Enhancement: 10 nM
[3]; [8]
  Maximum Enhancement (% maximum contraction): 18%
[3]; 6 min drug exposure
  minimal effective concentration: 10 nM

## CC1=C(C(=O)OC(C)C)C(c2cccc3nonc23)C([N+](=O)[O-])=C(C)N1 (racemic) [Example 202-792, 2-propyl 4-(4-benzofurazanyl)-1,4-dihydro-2,6-dimethyl-5-nitropyridine-3-carboxylate]
Rabbit aortic rings; high levels of depolarization
  contraction of aortic rings: inhibited contraction
Rabbit aortic rings; low levels of depolarization
  contraction of aortic rings: enhanced contractions of rabbit aortic rings at low levels of depolarization
[6]; high levels of depolarization
  radioactive calcium uptake: inhibited contraction and radioactive calcium uptake at high levels of depolarization

## COC(=O)C1=C(C)NC(C)=C([N+](=O)[O-])C1c1ccccc1C(F)(F)F (centres unmarked) [BAY K 8644, Methyl 1,4-dihydro-2,6-dimethyl-5-nitro-4-(2-trifluoromethylphenyl)-3-pyridine carboxylate]
[2]
  % Stimulation Above Control: 38%
[3]; Cavia porcellus, 0.1 h, increase above control as percent of maximum control calcium evoked contraction, 6 min drug exposure
  Emax: 38%
[3]; Cavia porcellus, 0.1 h, 6 min drug exposure
  minimal effective concentration: 10 nM
[3]
  Concentration at Maximum Enhancement: 100 nM
[7]
  inotropic effect: potent positive inotropic effects

## CC1=C(C(=O)OC2CN3CCC2CC3)C(c2cccc([N+](=O)[O-])c2)C([N+](=O)[O-])=C(C)N1 (single isomer, unassigned) [(+a, +b), (+a, +b)-1-Azabicyclo[2.2.2]oct-3-yl 1,4-Dihydro-2,6-dimethyl-4-(3-nitrophenyl)-5-nitropyridine-3-carboxylate fumarate]
[2]
  % Stimulation Above Control: 20%
[3]
  Concentration at Maximum Enhancement: 100 nM
[3]; [8]
  Maximum Enhancement (% maximum contraction): 11%
[3]; 6 min drug exposure
  minimal effective concentration: 10 nM

## CC1=C(C(=O)OC(C)C)[C@@H](c2cccc3nonc23)C([N+](=O)[O-])=C(C)N1 [R enantiomer]
Rabbit aortic rings; single enantiomer, in words
  contraction: inhibited contraction
  stimulant activity: no stimulant activity
[6]; single enantiomer, in words
  radioactive calcium uptake: inhibited contraction and radioactive calcium uptake

## CC1=C(C(=O)OC(C)C)[C@H](c2cccc3nonc23)C([N+](=O)[O-])=C(C)N1 [S enantiomer]
Rabbit aortic rings; single enantiomer, in words
  concentration-response curve for depolarization-induced contraction: shifted the concentration-response curve for depolarization-induced contraction in an almost parallel fashion to the left
  contraction: enhanced contraction
[6]; single enantiomer, in words
  radioactive calcium uptake: enhanced radioactive calcium uptake dependently at all levels of depolarization
